The text below walks through data of ChEMBL document CHEMBL1154543, “Facile synthesis and biological evaluation of a cell-permeable probe to detect redox-regulated proteins” (Bioorg Med Chem Lett, 2009).

Active and inactive are the calls of the source. The rule behind the calls is not given here.

In data set [1] the target is Glyceraldehyde-3-phosphate dehydrogenase (Homo sapiens) (UniProt P04406). As to the kind of experiment: Binding affinity to sulfenic acid modified GAPDH in human HeLa cells at 10 mM by Western blot. Type of data set: cell-based.
Data set [2] concerns HeLa. As to the kind of experiment: Binding affinity to sulfenic acid modified actin in human HeLa cells at 10 mM by Western blot. Type of data set: cell-based. For orientation: A western blot detects proteins with antibodies after separation by electrophoresis.
Data set [3] can be described thus: Binding affinity to Cdc25A C384S mutant assessed as protein labeling based detection of sulfenic acid modification at 20 uM in presence of 5 mM DTT by Western blot.
Data set [4] in a line: Binding affinity to Cdc25A C384S mutant assessed as protein labeling based detection of sulfenic acid modification at 10 mM by Western blot.
Data set [5] concerns the target Glyceraldehyde-3-phosphate dehydrogenase (Homo sapiens) (UniProt P04406). As to the kind of experiment: Binding affinity to sulfenic acid modified GAPDH by Western blot.
The target is the same in data set [6]. Put plainly: Inhibition of DAz1-biotin binding to sulfenic acid modified GAPDH at 250 uM by Western blot.
The target of data set [7] is T1, Peroxiredoxin-1 (Homo sapiens) (UniProt Q06830).
T1 sequence (whole entry): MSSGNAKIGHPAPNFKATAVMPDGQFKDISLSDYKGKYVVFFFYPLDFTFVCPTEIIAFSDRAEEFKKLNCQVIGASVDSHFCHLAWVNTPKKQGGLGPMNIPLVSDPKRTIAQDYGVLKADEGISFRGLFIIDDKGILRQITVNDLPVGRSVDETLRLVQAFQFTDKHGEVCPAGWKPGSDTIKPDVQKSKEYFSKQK
Put plainly: Binding affinity to sulfenic acid modified peroxiredoxin human HeLa cells at 10 mM by Western blot. Type of data set: cell-based.

The test system of data set [8] is HeLa. Put plainly: Toxicity against human HeLa cells after 2 hrs by trypan blue exclusion method. Type of data set: cell-based.

Chain of Glyceraldehyde-3-phosphate dehydrogenase (Homo sapiens) (P04406 2-335 limits assumed): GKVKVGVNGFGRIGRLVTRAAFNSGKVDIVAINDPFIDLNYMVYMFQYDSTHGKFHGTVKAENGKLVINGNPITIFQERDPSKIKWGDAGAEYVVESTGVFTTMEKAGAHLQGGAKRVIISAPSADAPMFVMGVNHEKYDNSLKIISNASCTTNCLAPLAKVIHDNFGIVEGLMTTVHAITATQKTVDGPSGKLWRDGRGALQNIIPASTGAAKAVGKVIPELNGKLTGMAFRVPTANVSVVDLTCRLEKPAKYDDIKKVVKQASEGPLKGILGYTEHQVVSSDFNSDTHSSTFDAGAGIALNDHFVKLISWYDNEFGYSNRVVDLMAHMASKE

With `[N-]=[N+]=NCCCNC(=O)C1CC(=O)CC(=O)C1`, the outcome in data set [1], in data set [2], in data set [4], in data set [5] and in data set [7] was Active. Moreover, the outcome in data set [3] was inactive. This compound also had an inhibition in data set [6] of 90%. In addition, in data set [8], the Activity result is “Non-toxic”.

A word on the inhibition: it is the drop in the measured response relative to a control, in per cent. Read a high inhibition as a strong effect.
